Results taken from patent US20200407382A1, “POLYMORPHIC FORMS OF (9-[(R)-2-[[(S)-[[(S)-1-(ISOPROPOXYCARBONYL)ETHYL]AMINO]PHENOXY PHOSPHINYL]METHOXY]PROPYL] ADENINE AND PHARMACEUTICALLY ACCEPTABLE SALTS THEREOF” (CIPLA LIMITED, priority 2017, published 2020).

Method: FIG. 10 illustrates a dynamic vapor sorption (DVS) isotherm profile of Form C4 of (9-[(R)-2-[[(S)-[[(S)-1-(isopropoxycarbonyl)ethyl]amino] phenoxyphosphinyl] methoxy]propyl] adenine hemifumarate , according to another embodiment. For the DVS measurement a sample of crystalline Form C4 was cycled through changing humidity conditions to determine its hygroscopicity. The sample was analyzed using a Surface Measurement System DVS-1 Dynamic Vapor Sorption System. About 100 mg of crystalline Form C4 was placed into a mesh vapor sorption balance pan and loaded into a dynamic vapor sorption balance as part of the
Surface Measurement System. Data was collected in 1-minute intervals. Nitrogen was used as the carrier gas. The sampled crystalline Form C4 was subjected to a ramping profile from 0-95% relative humidity (RH) at 5 and 10% increments, maintaining the sample at each step until a stable weight had been achieved (99.5% step completion). After completion of the Sorption cycle, the sample was dried using the same procedure, but all the way down to 95% RH to 30% RH (10% RH interval) and from 30% RH to 5% RH (5% RH interval). The weight change during the Sorption/desorption cycles were plotted, allowing for the hygroscopic nature of the sample to be determined.
• 1. The hygroscopicity was studied at 25° C. using an SMS DVS intrinsic analyser. • 2. About 100 mg of sample was placed in a tared sample holder at an initial ambient room humidity. • 3. A total wet/dry nitrogen flow rate of 270 cc/min was used throughout the study. • 4. Solids were studied by performing one full cycle of the following program: 300 minutes of drying at 25° C. under dry N2, followed by settings of 0, 5, 10, 15, 20, 25, 30, 40, 50, 60, 70, 80, 90 and 95% RH, with exposure time at each humidity set point dependent upon 99.5% confidence in the F1 fit model or 60 minutes. The maximum time allowed at any one humidity set point was 60 minutes. Followed by decreasing 95% RH to 30% RH (10% RH interval) and from 30% RH to 5% RH (5% RH interval). […]. The sample was maintained under dry N2 after the cycle was completed. • 5. Percent weight gain was calculated based on the dry weight basis.

CC(C)OC(=O)[C@H](C)N[P@](=O)(CO[C@H](C)Cn1cnc2c(N)ncnc21)Oc1ccccc1 [Form C4, (9-[(R)-2-[[(S)-[[(S)-1-(isopropoxycarbonyl)ethyl]amino]phenoxyphosphinyl]methoxy]propyl]adenine hemifumarate]
hygroscopicity (DVS isotherm) (25° C., 0-95% RH sorption/desorption cycles): non-hygroscopic
hysteresis between sorption and desorption cycles (DVS, 0-95% RH): very small hysteresis
change of crystalline form during DVS (XRPD post DVS vs pre-DVS) (XRPD pattern post DVS analysis compared with FIG. 4): no change in the crystalline Form C4
increase in mass during the Sorption cycle (between 0% and 95% RH, 25° C.): about 1.7%
